From ChEMBL document CHEMBL4000203, “Green synthesis and anticancer potential of chalcone linked-1,2,3-triazoles” (Eur J Med Chem, 2017)
The source made the active and inactive calls. No cut-off for these calls is given here.

What was measured:
MCF7 [1] = experiment: Cytotoxicity against human MCF7 cells assessed as growth inhibition at 10 uM measured after 48 hrs by MTT assay relative to control; assay type: functional; details: for inhibition of growth at 10 µM: MCF7, 48 h, read-out: GI
MIA PaCa-2 [2] = experiment: Cytotoxicity against human MIAPaCa2 cells assessed as growth inhibition at 10 uM measured after 48 hrs by MTT assay relative to control; assay type: functional; details: for inhibition of growth at 10 µM: MIA PaCa-2, 48 h, read-out: GI
A549 [3] = experiment: Cytotoxicity against human A549 cells assessed as growth inhibition at 10 uM measured after 48 hrs by MTT assay relative to control; assay type: functional; details: for inhibition of growth at 10 µM: A549, 48 h, read-out: GI
HepG2 [4] = experiment: Cytotoxicity against human HepG2 cells assessed as growth inhibition at 10 uM measured after 48 hrs by MTT assay relative to control; assay type: functional; details: for inhibition of growth at 10 µM: HepG2, 48 h, read-out: GI
[5] = Cytotoxicity against human FR2 cells assessed as growth inhibition at 10 uM measured after 48 hrs by MTT assay relative to control; assay type: cell-based; details: for inhibition at 48 h, 10 µM: FR2 cells, read-out: GI; for growth inhibition (GI): fr2, 48 h, 10 µM
MCF7 [6] = experiment: Cytotoxicity against human MCF7 cells measured after 48 hrs by MTT assay; assay type: functional, cell-based; details: MCF7, 48 h
MIA PaCa-2 [7] = experiment: Cytotoxicity against human MIAPaCa2 cells measured after 48 hrs by MTT assay; assay type: functional, cell-based; details: MIA PaCa-2, 48 h
A549 [8] = experiment: Cytotoxicity against human A549 cells measured after 48 hrs by MTT assay; assay type: functional, cell-based; details: A549, 48 h
HepG2 [9] = experiment: Cytotoxicity against human HepG2 cells measured after 48 hrs by MTT assay; assay type: functional, cell-based; details: HepG2, 48 h
[10] = Cytotoxicity against human FR2 cells measured after 48 hrs by MTT assay; assay type: cell-based; details: FR2, 48 h

SMILES	inhibition of growth at 10 µM (MCF7 [1]) [%]	inhibition of growth at 10 µM (MIA PaCa-2 [2]) [%]	inhibition of growth at 10 µM (A549 [3]) [%]	inhibition of growth at 10 µM (HepG2 [4]) [%]	inhibition at 48 h, 10 µM [5] [%]	IC50 (MCF7 [6]) [µM]	IC50 (MIA PaCa-2 [7]) [µM]	IC50 (A549 [8]) [µM]	IC50 (HepG2 [9]) [µM]	IC50 [10] [µM]	growth inhibition (GI) (MCF7 [1])	growth inhibition (GI) (MIA PaCa-2 [2])	growth inhibition (GI) (A549 [3])	growth inhibition (GI) (HepG2 [4])	growth inhibition (GI) [5]
COc1ccc(C(=O)/C=C/c2ccc(OCc3cn(Cc4cccc(F)c4)nn3)cc2)cc1	41	48	56	22	12	55	15	9	85	> 100	–	–	–	–	–
O=C(/C=C/c1ccc(OCc2cn(Cc3cccc(Br)c3)nn2)cc1)c1ccc([N+](=O)[O-])cc1	12	21	28	13	4	–	–	–	–	–	–	–	–	–	–
O=C(/C=C/c1ccc(OCc2cn(Cc3cccc(F)c3)nn2)cc1)c1ccc([N+](=O)[O-])cc1	30	32	33	43	5	–	–	–	–	–	–	–	–	–	–
O=C(/C=C/c1ccc(OCc2cn(Cc3ccccc3F)nn2)cc1)c1ccc([N+](=O)[O-])cc1	33	22	43	22	12	–	–	–	–	–	–	–	–	–	–
O=C(/C=C/c1ccc(OCc2cn(Cc3cccc(Br)c3)nn2)cc1)c1ccc(Br)cc1	36	43	44	25	9	–	–	–	–	–	–	–	–	–	–
COc1ccc(C(=O)/C=C/c2ccc(OCc3cn(Cc4ccccc4F)nn3)cc2)cc1	32	19	21	33	11	–	–	–	–	–	–	–	–	–	–
C#CCOc1ccc(/C=C/C(=O)c2ccc(OC)cc2)cc1	32	32	27	25	8	–	–	–	–	–	–	–	–	–	–
O=C(/C=C/c1ccc(OCc2cn(Cc3ccccc3Br)nn2)cc1)c1ccc(Br)cc1	44	43	44	34	11	–	–	–	–	–	–	–	–	–	–
O=C(/C=C/c1ccc(OCc2cn(Cc3ccccc3Br)nn2)cc1)c1ccc([N+](=O)[O-])cc1	43	34	42	32	2	–	–	–	–	–	–	–	–	–	–
O=C(/C=C/c1ccc(OCc2cn(Cc3ccccc3)nn2)cc1)c1ccc([N+](=O)[O-])cc1	–	–	–	–	–	–	–	–	–	–	inactive	inactive	inactive	inactive	Non-Toxic
O=C(/C=C/c1ccc(OCc2cn(Cc3ccc(F)cc3)nn2)cc1)c1ccc([N+](=O)[O-])cc1	38	44	34	25	8	–	–	–	–	–	–	–	–	–	–
O=C(/C=C/c1ccc(OCc2cn(Cc3ccc(F)cc3)nn2)cc1)c1ccc(Br)cc1	37	32	43	22	7	–	–	–	–	–	–	–	–	–	–
O=C(/C=C/c1ccc(OCc2cn(Cc3ccccc3F)nn2)cc1)c1ccc(Br)cc1	38	28	38	29	8	–	–	–	–	–	–	–	–	–	–
COc1ccc(C(=O)/C=C/c2ccc(OCc3cn(Cc4ccc(F)cc4)nn3)cc2)cc1	15	6	33	21	–	–	–	–	–	–	–	–	–	–	Non-Toxic
O=C(/C=C/c1ccc(OCc2cn(Cc3ccc(Br)cc3)nn2)cc1)c1ccc(Br)cc1	23	29	27	22	11	–	–	–	–	–	–	–	–	–	–
C#CCOc1ccc(/C=C/C(=O)c2ccc([N+](=O)[O-])cc2)cc1	44	42	33	27	2	–	–	–	–	–	–	–	–	–	–
COc1ccc(C(=O)/C=C/c2ccc(OCc3cn(Cc4ccc(Br)cc4)nn3)cc2)cc1	53	56	50	59	2	9	8	10	8	> 100	–	–	–	–	–
O=C(/C=C/c1ccc(OCc2cn(Cc3ccccc3)nn2)cc1)c1ccc(Br)cc1	34	44	34	22	7	–	–	–	–	–	–	–	–	–	–
O=C(/C=C/c1ccc(OCc2cn(Cc3ccc(Br)cc3)nn2)cc1)c1ccc([N+](=O)[O-])cc1	18	17	18	21	10	–	–	–	–	–	–	–	–	–	–
O=C(/C=C/c1ccc(OCc2cn(Cc3cccc(F)c3)nn2)cc1)c1ccc(Br)cc1	42	34	37	34	4	–	–	–	–	–	–	–	–	–	–
Oc1cccc(-c2nc(N3CCOCC3)c3oc4ncccc4c3n2)c1 [PI-103]	97	93	89	65	25	3	6	4	8	> 50	–	–	–	–	–
C#CCOc1ccc(/C=C/C(=O)c2ccc(Br)cc2)cc1	45	34	34	22	9	–	–	–	–	–	–	–	–	–	–
COc1ccc(C(=O)/C=C/c2ccc(OCc3cn(Cc4ccccc4Br)nn3)cc2)cc1	60	50	52	44	7	7	10	10	20	> 100	–	–	–	–	–
COc1ccc(C(=O)/C=C/c2ccc(OCc3cn(Cc4cccc(Br)c4)nn3)cc2)cc1	45	50	47	27	3	20	10	15	60	> 100	–	–	–	–	–
